Laboratory results from patent US20240033328A1, “ACTH IN THE TREATMENT OF AN ADRENOCORTICOTROPIC HORMONE RESPONSIVE PEDIATRIC DISORDER” (Amzell B.V., priority 2020, published 2024).

Key:
Assay type in all cases: in vivo, healthy adult subjects
[1] = Phase 1 single ascending dose study: safety and tolerability; details: for safety and tolerability: single IM doses 0.15 mg to 0.75 mg
Method: (§1) Subjects who met all of the inclusion criteria and none of the exclusion criteria were enrolled in the study. Safety and tolerability were evaluated throughout the study, including all adverse events (AEs); physical examination findings; vital sign measurements; 12-lead electrocardiogram (ECG) findings; standard clinical laboratory measurements (eg, serum chemistry, hematology, and urinalysis); and injection site evaluations. Immunogenicity, as measured by antidrug antibodies (ADA) were evaluated. PD effects were assessed based on levels of cortisol and an adrenal panel of intermediates (dehydroepiandrosterone [DHA], 17-hydroxypregnenolone, and 17 hydroxyprogesterone). Blood samples for measurement of syn-ACTH concentrations were also collected (AMZ002 cohorts only).
Safety parameters included all AEs; physical examination findings; vital sign measurements; 12-lead ECG findings; standard clinical laboratory measurements (eg, serum chemistry, hematology, and urinalysis); and injection site evaluations.

[2] = Phase 1 single ascending dose study: plasma pharmacokinetics of syn-ACTH
Method: as §1
Blood samples were collected prior to dosing on Day 1; at 5, 15, 30, and 45 minutes postdose; and at 1, 1.5, 2, 2.5, 3, 4, 5, 6, 8, 10, 12, 24, 30, 36, and 48 hours postdose.
The following plasma PK (pharmacokinetics) parameters of syn-ACTH were calculated from individual syn-ACTH concentration data for each cohort: • Maximum plasma concentration (Cmax) if the maximum value occurred at more than 1 time point, Cmax was defined as the first value; • Time to Cmax (Tmax); • Terminal elimination constant rate (λz); • Terminal elimination half-life (t1/2), calculated as ln(2)/λz; • AUC from time 0 to the last quantifiable plasma concentration (Clast) (AUClast); • AUC from time 0 to infinity (AUCinf);
Proportion of AUCinf due to extrapolation (%)(AUCextr), calculated as 100×(Clast/λz)/AUCinf; • Apparent clearance (CL/F); calculated as Dose/AUCinf; and • Apparent volume of distribution (Vz/F), calculated as Dose/[λz×AUCinf].

[3] = Phase 1 single ascending dose study: immunogenicity (antidrug antibodies); details: single IM dose; consistent with that observed for H.P. Acthar Gel
Method: as §1
Blood samples for evaluation of immunogenicity as measured by ADA were obtained at the Treatment Visit (Day 1) (predose), prior to discharge (Day 3), the Follow-Up Visit (Day 8 [+2 days])/Early Termination Visit, and subsequent visits for collection of ADA (Day 15 [+2 days] and Day 29 [+2 days]).

[4] = system: cortisol and an adrenal panel of intermediates (DHA, 17-hydroxypregnenolone, 17-hydroxyprogesterone); assay: Phase 1 single ascending dose study: pharmacodynamics (plasma cortisol and adrenal panel of intermediates)
Method: This was a Phase 1, single-blind, active-controlled, single ascending dose study to compare the PD effects of the investigational drug AMZ002 with those of H.P. Acthar Gel and Cortrosyn in healthy adult subjects. AMZ002 is a sterile solution for IM injection, formulated to contain 0.5 mg/mL ACTH having the sequence […] Phe, 50 mg/mL dextrose, 10 mg/mL sodium carboxymethylcellulose, and 5 mg/mL phenol (pH 6.4). The concentration of 0.5 mg/mL was chosen to reduce possible errors resulting from the preparation of small dose volumes (e.g., less than 0.4 ml).
The study consisted of 8 cohorts, with 8 subjects per cohort (each a single dose): Cortrosyn 0.25 mg; H.P. Acthar Gel 25 U; or, in an ascending dose fashion, AMZ002 0.15, 0.20, 0.25, 0.30, 0.50, or 0.75 mg. The investigational product (AMZ002) and active comparators (Cortrosyn and H.P. Acthar Gel) were administered via intramuscular (IM) injection to the upper arm. The dose of Cortrosyn (0.25 mg by IM administration), the active control, was intended to produce maximal adrenal stimulation. This is the standard dose for adults and children ≥2 years of age recommended in the 2015 Endocrine Society Clinical Practice Guidelines for diagnostic testing of adrenal insufficiency (same dose whether Cortrosyn is administered intravenously or IM). […] Since 25 U of natural ACTH was expected to elicit […] adrenal response, it was considered the most sensitive dose to determine a pharmacodynamically equivalent dose of AMZ002 in this study. Therefore, this study included a cohort of subjects who received a single dose of 25 U H.P. Acthar Gel (representing the target PD for the investigational drug product in this study).
On Day-1, a single standard dose of dexamethasone (1 mg) was administered orally at approximately midnight (8 hours prior to study drug administration the following day) to suppress endogenous adrenocorticotropic hormone (ACTH) production and remove this as a confounding variable in the measurements. […]
For each PD (pharmacodynamics) analyte (plasma cortisol and an adrenal panel of intermediates [DHA, 17-hydroxypregnenolone, and 17-hydroxyprogesterone]), the following parameters were calculated with the actual time points using a noncompartmental method as appropriate: • Maximum observed PD measurement (Emax); • Time to reach maximum observed PD measurement (TEmax); and • Area under the PD effect-time curve from time 0 to the last quantifiable PD measurement (AUEC0−t).
The PD parameters using baseline-corrected PD measurements were calculated similarly, if applicable. […] The following parameters were also calculated using baseline-corrected PD measurements: • Area under the PD effect-time curve that was above baseline (AUECabove B); and • Total time that response was≥baseline (Timeabove B). […]

Substance: H-SYSMEHFRWGKPVGKKRRPVKVYPNGAEDELAEAFPLEF-OH [AMZ002]
- deaths, treatment-emergent SAEs, withdrawals due to a TEAE ([1]; single IM doses): no deaths, treatment-emergent serious adverse events (SAEs), or withdrawals due to a treatment emergent adverse event (TEAE)
- severity of TEAEs ([1]; single IM doses): mild or moderate
- safety and tolerability [1]: safe and well tolerated
- safety and tolerability ([1]; listed as ACTH having SEQ ID NO:1): generally safe and well tolerated
- half-life ([2]; human, plasma, single IM dose, range across dose cohorts, read-out: mean t½): 54.7 to 156 min
- Tmax ([2]; human, plasma, single IM dose, range across dose cohorts, read-out: median Tmax): 0.08 to 2 h
- absorption ([2]; single IM dose): rapidly absorbed
- time to mean peak plasma concentrations after dosing ([2]; single IM dose): ≤ 2 h
- increase of exposure with increase in dose ([2]; single IM dose 0.15 to 0.75 mg): greater than proportional
- incidence of antibody formation (minimum of 1 positive postdose result) [3]: low
- cortisol response compared to 25 U H.P. Acthar Gel, highest levels ([4]; highest dose levels within 0.15 to 0.75 mg, single IM dose, FIG. 1): slightly greater and more sustained effects
- cortisol response compared to 25 U H.P. Acthar Gel, lowest levels ([4]; lowest dose levels within 0.15 to 0.75 mg, single IM dose, FIG. 1): maximal effect that is less sustained
- DHA response, lower levels compared to higher levels ([4]; single IM dose 0.15 to 0.75 mg, FIG. 2): maximal effect that is less sustained
- 17-hydroxypregnenolone response, lower levels compared to higher levels ([4]; single IM dose 0.15 to 0.75 mg, FIG. 3): maximal effect that is less sustained
